{"source": "patent EP1621201A1", "about": "“Hesperidin for prophylaxis and treatment of diseases of the central nervous system, in particular Alzheimer's and Parkinson's diseases, for therapy after stroke as well as for chronic pain” (NeuroCode AG, priority 2004, dated 2006)", "system": "Fischer-344 Ratten", "test": "Tele-Stereo-EEG in freely moving rats (field potentials from frontal cortex, hippocampus, striatum, reticular formation; power density spectra)", "assay_type": "in vivo, Ratte", "details": "rat", "method": "Die Veränderungen der EEG-Frequenzen nach intraperitonealer Gabe von Salzlösung (Kontrolle) bzw. einer Dosis von Hesperidin (80 und 160 mg/kg Körpergewicht) wurden bestimmt.\nDie Untersuchungen wurden analog der durch W. Dimpfel beschriebenen Methode (Dimpfel W Preclinical data base of pharmaco-specific rat EEG fingerprints (Tele-Stereo-EEG). Eur J Med Res (2003) 8: 199-207) folgendermaßen durchgeführt:\nZwölf männlichen erwachsenen Fischer-344 Ratten (Tag-Nacht konvertiert) wurden im Alter von 6 Monaten 4 bipolar konzentrische Elektroden zusammen mit einem Mikrostecker auf einer gemeinsamen Basisplatte implantiert. Der Stecker diente der Aufnahme eines 4-Kanal-Senders zur telemetrischen Übertragung der aus frontalem Kortex, Hippokampus, Striatum und Formation Reticularis abgeleiteten Feldpotentiale. Die Signale wurden auf einem Computer System (Software \"EEG-Analyse\", Betriebssystem OS Science, Laborrechner \"LabTeam\" der Firma MediSyst, Linden, DE) in Echtzeit einer Fast-Fourier-Transformation unterworfen und die Leistungsdichtespektren jeweils über 15 bis 60 Minuten gemittelt. Die Unterteilung der Spektren in 6 verschiedene Frequenzbereiche erlaubte die Erfassung pharmako-spezifischer Veränderungen in Bezug auf die jeweils vor Applikation gemessenen Vorwerte innerhalb dieser Frequenzbänder.\nZum Applikationsprotokoll der Substanzen: die Substanzen wurden i.p. 45 Minuten nach Beginn der Messungen (Vorwert) injiziert. Fünf Minuten später wurden die Messungen wieder gestartet, mindestens über die nächsten 5 Stunden kontinuierlich analysiert und in 60-minütigen Perioden zusammengefaßt. Die Testsubstanz wurde in einer Dosierung von 80 und 160 mg/kg appliziert. Die experimentelle Serie wurde mit der Injektion von Salzlösung (Kontrolle), die zu keiner auffälligen Änderung führte, begonnen.\nDer statistische Vergleich der Versuche zu den Ergebnissen, die nach Gabe von Salzlösung gemessen wurde, erfolgte mit Hilfe einer multivariaten Analyse nach Ahrens und Läuter (siehe H. Ahrens, J. Läuter \"Mehrdimensionale Varianzanalyse\" (1974), Akademie Verlag, Berlin) auf der Basis der Veränderungen innerhalb der einzelnen Frequenzbänder in allen Hirnregionen als Variablen."}
{"compound": "COc1ccc([C@@H]2CC(=O)c3c(O)cc(O[C@@H]4O[C@H](CO[C@@H]5O[C@@H](C)[C@H](O)[C@@H](O)[C@H]5O)[C@@H](O)[C@H](O)[C@H]4O)cc3O2)cc1O", "note": "[Hesperidin, Hesperetin 7-rhamnoglucosid]", "values": [{"measurement": "zeitabhängige Veränderungen der EEG-Frequenzen (delta, theta und alpha2 Frequenzen)", "setting": "80 or 160 mg/kg Hesperidin i.p., Fig. 3a and 3b", "result": "nehmen statistisch signifikant und dauerhaft ab"}, {"measurement": "correlation of the EEG pattern with patterns of drugs for neurodegenerative diseases, pain and stroke (discriminant analysis)", "setting": "i.p. single dose, compared with Tacrin, Piracetam, Memantine, Metamizol, Amphetamin, no correlation with patterns of drugs for other indications", "result": "korrelieren in signifikanter Weise"}, {"measurement": "delta, theta und alpha2 Frequenzen", "setting": "i.p., 160 mg/kg, first hour after administration", "result": "Abfall"}, {"measurement": "duration for which the pattern (decrease of delta, theta, alpha2) was observed", "setting": "i.p., 160 mg/kg, whole test period", "result": 5, "unit": "Stunden"}, {"measurement": "Veränderungen der Leistungsdichte in den einzelen Hirnregionen", "setting": "i.p., 80 and 160 mg/kg, versus pre-drug baseline", "result": "dosis-abhängig zu deutlichen Veränderungen"}, {"measurement": "Muster der EEG-Frequenzänderungen", "setting": "i.p., after 80 and 160 mg/kg, versus saline", "result": "stabiles, statistisch signifikantes Muster"}]}
